Assay results: paper PMC2813863, “In Vivo Evaluation of α7 Nicotinic Acetylcholine Receptor Agonists [^11C]A-582941 and [^11C]A-844606 in Mice and Conscious Monkeys” (PLoS ONE, 2010)

Key:
[1] = biological target: α7 nAChRs (Mus musculus, UniProt P49582); details: in vivo
Protocol: In the other group of mice, a blocking experiment to determine the α7 nAChRs-specific regional brain uptake of the tracers was carried out. Each tracer (2 MBq/0.055–0.096 nmol) was co-injected with each of the following blockers into mice, and 15 ([^11C]A-582941) or 30 ([^11C]A-844606) min later the mice were killed (n = 5) and the tissue uptake of ^11C was expressed as the %ID/g. […] Each blocker was dissolved in 1N HCl to 40 mg/ml and diluted up to 0.4 mg/ml with saline. The co-injected dose was 1 mg/kg. In the control mice the same amount of 0.01 N HCl in saline was co-injected.

[2] = cited from earlier work
[3] = biological target: 5-HT3 receptors; test: Displacement of [^3H]-BRL 43694 (Granisetron) binding
[4] = biological target: heteromeric α4β2 subtypes; details: rat brain membranes; read-out: K i, [^3H]cytisine binding; cited from earlier work
[5] = test system: 5-HT3 receptors; details: cited from earlier work
[6] = test system: >75 binding sites; details: 10 µM, exception 5-HT3 receptors; cited from earlier work
[7] = biological target: α7 nAChRs; details: read-out: KD for α-bungarotoxin; cited from earlier work
[8] = test system: α4β2 nAChRs; details: read-out: IC50, displacement of [^3H]cytisine binding to α4β2 nAChRs; cited from earlier work
[9] = test system: α7 nAChRs; details: read-out: IC50, displacement of [^3H]MLA binding; cited from earlier work

Sequence of α7 nAChRs (Mus musculus, UniProt P49582) (P49582 23-502): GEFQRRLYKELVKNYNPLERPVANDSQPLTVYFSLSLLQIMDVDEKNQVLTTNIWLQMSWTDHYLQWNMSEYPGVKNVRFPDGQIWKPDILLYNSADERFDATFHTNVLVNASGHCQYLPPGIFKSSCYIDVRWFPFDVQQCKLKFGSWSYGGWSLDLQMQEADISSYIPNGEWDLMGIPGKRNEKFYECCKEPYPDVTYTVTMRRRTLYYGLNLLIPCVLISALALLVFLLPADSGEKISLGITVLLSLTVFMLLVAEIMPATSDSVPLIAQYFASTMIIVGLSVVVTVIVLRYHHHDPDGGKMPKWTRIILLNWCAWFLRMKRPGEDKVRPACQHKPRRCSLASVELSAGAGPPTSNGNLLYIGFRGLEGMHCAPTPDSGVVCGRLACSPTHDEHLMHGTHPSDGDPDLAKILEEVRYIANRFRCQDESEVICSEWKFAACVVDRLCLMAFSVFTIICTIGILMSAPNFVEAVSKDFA

Row | Compound | % Injected dose/g tissue, Blood [1] | % Injected dose/g tissue, Cerebellum [1] | % Injected dose/g tissue, Cerebral cortex [1] | % Injected dose/g tissue, Hippocampus [1] | % Injected dose/g tissue, Hypothalamus [1] | % Injected dose/g tissue, Medulla oblongata [1] | % Injected dose/g tissue, Midbrain [1] | % Injected dose/g tissue, Striatum [1] | % Injected dose/g tissue, Whole brain [1] | other results
1 | CN1CC2CN(c3ccc(-c4ccccc4)nn3)CC2C1 (stereo not drawn) [A-582941, 2-methyl-5-[6-phenylpyridazine-3-yl]octahydropyrrolo[3,4-c]pyrrole] | 0.61±0.07 % Injected dose/g tissue | 5.17±0.97 % Injected dose/g tissue | 8.38±1.22 % Injected dose/g tissue | 6.48±1.31 % Injected dose/g tissue | 4.76±1.17 % Injected dose/g tissue | 5.58±1.26 % Injected dose/g tissue | 5.80±1.46 % Injected dose/g tissue | 6.81±1.05 % Injected dose/g tissue | 6.71±1.09 % Injected dose/g tissue | clog P [2]: 2.3; pKa, N-methylated tertiary amine [2]: 8.75; pKa, aminopyridazine [2]: 4.44; log D at pH 7.4 ([2]; pH 7.4): 1.0; K i for 5-HT3 receptors relative to that for α7 nAChRs [3]: ~15 fold; Ki [4]: > 100 µM; displacement of [^3H]-BRL 43694 (Granisetron) binding ([5]; at 10 µM): > 85%; Ki ([5]; read-out: K i for 5-HT3 receptors): 154 nM; displacement of binding of >75 binding sites [6]: did not show significant displacement
2 | α-bungarotoxin |  |  |  |  |  |  |  |  |  | Kd [7]: 1.67 nM
3 | CN1CC2CN(c3ccc4oc5ccccc5c(=O)c4c3)CC2C1 (stereo not drawn) [A-844606, 2-(5-methyl-hexahydro-pyrrolo[3,4-c]pyrrol-2-yl)-xanthene-9-one] | 0.91±0.10 % Injected dose/g tissue | 3.62±0.10 % Injected dose/g tissue | 4.78±0.19 % Injected dose/g tissue | 4.20±0.55 % Injected dose/g tissue | 3.50±0.87 % Injected dose/g tissue | 4.04±0.19 % Injected dose/g tissue | 4.29±0.11 % Injected dose/g tissue | 3.94±0.89 % Injected dose/g tissue | 4.27±0.18 % Injected dose/g tissue | IC50 [8]: > 30 µM; IC50 [9]: 11 nM
